Measured values: patent US5455233A, “Oligoribonucleoside and oligodeoxyribonucleoside boranophosphates” (University of North Carolina, priority 1992, dated 1995)

Experiments:
[1] = tested on: KB epidermoid oral nesopharnyx; assay: Cytotoxic activity, KB epidermoid oral nesopharnyx; format: cell-based; details: cell density estimated when controls converged
Description: The cytotoxic activity of oligonucleoside boranophosphates of the present invention was tested on the following neoplastic cell lines:
6. KB epidermoid oral nesopharnyx. R. Geran, supra; H. Eagle, Proc. Soc. Expt. Biol. 89, 362 (1955) (grown in EMEM+5% calf serum).
The cytotoxic screens were conducted according to NIH protocols, see E. Huang et al., J. Pharm. Sci. 61, 108 (1972), with 10^4 cells, growth medium, antibiotics and drugs from 0.5 to 100 μg/ml final concentration. For the L1210, Hela-S, amd Tmolt, (i.e. the suspended cells), the incubations were conducted in sterile test tubes in a final volume of 1 ml for 72 hr at 37° C. in a CO2 incubator. The cells on the third day were still in log growth phase. The number of cells/ml are determined using trypan blue exclusion and a hemocytometer. See, e.g., R. Geran, supra. For solid tumors 1×10^4 cells are plated with 1 ml of medium+ antibiotics and the other components of growth. When the controls have converged (≈95%) then the density of the cells is estimated and the ED50 values calculated.

serum cholesterol = assay: Antihyperlipidemic activity: serum cholesterol levels in male CF1 mice; format: in vivo; details: for Percent Inhibition, Serum Cholesterol, Day 9: Day 9, 8 mg/kg intraperitoneally; for Percent Inhibition, Serum Cholesterol, Day 16: Day 16, 8 mg/kg intraperitoneally
Description: (§1) Compounds to be tested were suspended in 1% aqueous carboxymethylcellulose,homogenized and administered to male CF1 mice (25 g) intraperitoneally for 16d. On days 9 and 16, blood was obtained by tail vein bleeding, and the serum was separated by centrifugation for three minutes. The serum cholesterol levels were determined by a modification of the Liebermann-Burchard reaction in accordance with known techniques. See A. Ness, et al., Clin. Chim. Acta 10, 229 (1964). Serum triglyceride levels were determined with a commercial kit, the Fisher Hycel Triglyceride Test Kit, for a different group of animals bled on day 16.

serum triglyceride = assay: Antihyperlipidemic activity: serum triglyceride levels in male CF1 mice; format: in vivo; details: 8 mg/kg intraperitoneally
Description: as §1

[2] = tested on: inflammatory response (carrageenan, hind foot); assay: Anti-inflammatory activity: carrageenan-induced paw inflammation in CF1 male mice; format: in vivo; details: 8 mg/kg intraperitoneally 3 hours and 30 minutes prior to carrageenan; feet excised after 3 hours
Description: Anti-Inflammatory Activity CF1 male mice (~25 g) were administered test drugs at 5-40 mg/kg in 0.05% Tween 80-H2 O intraperitoneally 3 hours prior to and 30 minutes prior to the injection of 0.2 ml of 1% carrageenan in 0.9% saline into the plantar surface of the right hind foot. Saline was injected into the left hind foot, which serves as a base line. After 3 hours, both feet were excised at the tibiotarsal (ankle) joint according to standard procedures. See C. Winter et al., Proc. Soc. Expt. Biol Med. 544, 111 (1962); A. Roszkawski et al., J. Pharm. Exp. Ther. 179, 114 (1971). Control mice afforded a 78±3 mg increase in paw weight.

**Q.** What does the source list for “thymidylyl[3'-5']-(3'-acetylthymidylyl) (borane)phosphonate methyl ester [Compound A]”?
**A.** ED50, KB [1]: 3.51 µg/mL; Percent Inhibition, Serum Cholesterol, Day 9 (serum cholesterol): 38%; Percent Inhibition, Serum Cholesterol, Day 16 (serum cholesterol): 46%; Percent Inhibition, Serum Triglyceride, Day 16 (serum triglyceride): 12%; Percent Inhibition of the inflammatory response [2]: 37%

**Q.** With “thymidylyl[3'-5']thymidylyl[3'-5'](3'-acetylthymidylyl) boranephosphonate dimethyl ester [Compound T]” as the substance, how does the ED50, KB [1] read?
**A.** The ED50, KB was 0.61 µg/mL.

**Q.** What about the “Percent Inhibition, Serum Cholesterol, Day 9” value (serum cholesterol) of the same substance?
**A.** The value was 33%.

**Q.** And the “Percent Inhibition, Serum Cholesterol, Day 16” value (serum cholesterol)?
**A.** Its value is 32%.

**Q.** And the “Percent Inhibition, Serum Triglyceride, Day 16” value (serum triglyceride)?
**A.** The value was 18%.

**Q.** What about the “Percent Inhibition of the inflammatory response” value [2] of the same substance?
**A.** The value was 40%.
